This is an account of results in publication PMC4628711, “Antiproliferative and Antiestrogenic Activities of Bonediol an Alkyl Catechol from Bonellia macrocarpa” (BioMed Research International, 2015).

pIC50: −log10 of the molar value.

Experiment [1] deals with T1, ERα (estrogen receptor α) (Homo sapiens, UniProt P03372).
T1 construct: gene ESR1
T1 sequence (P03372 1-595): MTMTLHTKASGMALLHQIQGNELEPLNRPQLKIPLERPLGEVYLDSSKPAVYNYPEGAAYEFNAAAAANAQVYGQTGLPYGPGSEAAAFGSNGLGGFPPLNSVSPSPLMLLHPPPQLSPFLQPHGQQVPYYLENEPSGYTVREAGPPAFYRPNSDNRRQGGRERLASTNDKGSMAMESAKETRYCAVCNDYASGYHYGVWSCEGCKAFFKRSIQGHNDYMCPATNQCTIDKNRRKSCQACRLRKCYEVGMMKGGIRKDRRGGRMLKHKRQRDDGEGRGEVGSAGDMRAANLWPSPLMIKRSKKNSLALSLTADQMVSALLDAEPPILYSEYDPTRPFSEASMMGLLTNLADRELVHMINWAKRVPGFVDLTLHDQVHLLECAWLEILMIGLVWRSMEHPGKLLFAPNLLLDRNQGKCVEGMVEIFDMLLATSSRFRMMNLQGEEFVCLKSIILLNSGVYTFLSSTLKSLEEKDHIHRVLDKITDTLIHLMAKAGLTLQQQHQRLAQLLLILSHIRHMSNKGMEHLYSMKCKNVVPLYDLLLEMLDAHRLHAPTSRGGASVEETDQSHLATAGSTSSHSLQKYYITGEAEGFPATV
Kind of experiment: competitive [3H]-17β-estradiol radioligand binding, in vitro translated receptor (TNT reticulocyte lysate).

Experiment [2] concerns the target T2, ERβ (estrogen receptor β) (Homo sapiens, UniProt Q92731).
T2 construct: gene ESR2
The experiment is described as above.

T2 sequence (Q92731 whole entry): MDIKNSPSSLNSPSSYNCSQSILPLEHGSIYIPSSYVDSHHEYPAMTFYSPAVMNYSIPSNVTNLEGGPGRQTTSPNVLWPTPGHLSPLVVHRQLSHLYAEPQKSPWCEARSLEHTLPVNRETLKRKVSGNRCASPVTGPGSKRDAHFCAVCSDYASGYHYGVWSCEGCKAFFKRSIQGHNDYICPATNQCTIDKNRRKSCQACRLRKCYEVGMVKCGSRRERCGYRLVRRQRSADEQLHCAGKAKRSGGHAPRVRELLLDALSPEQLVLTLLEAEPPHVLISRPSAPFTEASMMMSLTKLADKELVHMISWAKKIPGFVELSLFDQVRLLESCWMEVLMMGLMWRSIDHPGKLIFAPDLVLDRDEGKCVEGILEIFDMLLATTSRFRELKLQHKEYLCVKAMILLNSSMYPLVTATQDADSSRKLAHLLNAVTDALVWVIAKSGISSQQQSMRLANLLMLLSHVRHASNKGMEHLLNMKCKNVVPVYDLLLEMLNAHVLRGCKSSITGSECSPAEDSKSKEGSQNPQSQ

Regarding bonediol, the values for the pIC50 in experiment [1] and in experiment [2] were 5.60 and 5.68, respectively.

One may read the pIC50 as −log10 of the IC50, conventionally taken in molar units.
